“And” between values parts separate entries of the source, which are not always exact repeats. Equal entries are not always repeated.

The subject of experiment [1] is MS2. As to conditions: PAA 7-15 mg/l; cited from earlier work.
The test system of experiment [2] is MS2. Put plainly: Disinfection of MS2-spiked wastewater effluent with PFA, UV and PFA+UV (plaque count). The arrangement: species or system RNA coliphages (MS2). On the procedure:
Freshly prepared DEX-135® was added to wastewater effluent (500 ml) that was spiked with RNA coliphages (MS2) to contain 38534 PFU/ml MS2 and mixed continuously with a magnetic stirrer.
UV disinfection using collimator device: The test was done with 50 ml of wastewater effluent The waters were taken in to the cylinders and that was spiked with RNA coliphages (MS2) to contain 38534 PFU/ml MS2 and mixed. 10 ml of this water was taken in to the Petri dishes (diameter 6 cm) and exposed to UV using collimated beam (intensity I0 on the surface of water […]) with continue mixing with magnet stirrer. […]
Determination of microorganisms: The microbiological analyses were started within a few minutes after disinfection segment of the experiment. MS2 coliphages were determined on phage TYG-agar by basing on old double-agar-layer-method (Adams, 1959), with Escherichia coli ATCC 15597 and 13706, respectively as host bacteria and overnight incubation at 37° C. After incubation, virus plaques were counted and results calculated as PFU/ml (PFU=Plaque Forming Unit) and reduction percentage were also determined. […]
The synergistic index was calculated by the method presented by F. C. […] Here, the synergistic index was calculated using the following formula: Synergistic index SI=Qa/QA+Qb/QB.
Synergistic index was calculated for 1 log reduction.

The subject of a further experiment is E. coli. Put plainly: Disinfection of spiked wastewater effluent with PFA, UV and PFA+UV: E. coli count. More on the design: species or system Escherichia coli. As to conditions: for PFA in combination with UV (Qa): UV 15 mWs/cm^2; for PFA in combination with UV (Qa) / PFA alone (QA): interpolated. Here is the method:
(§1) Since the wastewater effluent might contain less than 100 cfu/ml (10^4 cfu/100 ml) of E. coli and Enterococci these microorganisms were spiked to wastewater so that the numbers of these microorganisms would be at the level of 10^4-10^5 cfu/ml allowing to study better reduction. E. coli ATTC 15597 and Enterococcus faecalis ATCC 29212 were produced in tryptone yeast extract broth as overnight shaker cultures at 37° C. and kept at 4° C. during the experiment. The numbers of E. coli and Enterococci (containing thus both the natural and spiked ones) were enumerated from effluent and effluent after disinfections by using Chromocult agar (Merck) and confirmed by indole production for E. coli and Slanetz-Bartley agar (Labema) for Enterococci incubated at 37° C. for 1 and 2 days, respectively.
(§2) The enumerations of E. coli and Enterococci were done as for fresh wastewater keeping the mixture at 4° C. for less than 5 hours before starting the analysis.
(§3) Only UV-irradiation: The spiked wastewater effluent was mixed and treated in a collimator device (UV intensity of 0.22 mW/cm^2 on surface of the solution) to treat UV-irradiations using UV 15 mWs/cm^2 alone, UV 25 mWs/cm^2 alone and UV 50 mWs/cm^2 alone. The enumerations of E. coli and Enterococci were determined as previously.
(§4) E. coli and Enterococci were analyzed by the spread-plate-technique. E. coli were cultivated on Chromocult agar (Merck, KGaA, Germany) and incubated at 37° C. for 21+3 h (preferring 2 days) and Enterococci on Slanez & Bartley agar (Lab M, IDG plc, Bury, Lancashire, UK) and incubated at 37° C. for 48+3 h. E. coli were confirmed by oxidase. Bacterial numbers were calculated as CFU/ml (CFU=Colony Forming Unit) and reductions were also determined. These bacterial determination methods are describes in ISO-9308-1 (E. coli) and SFS-EN ISO 7899-2 (Enterococci).
(§5) The graphs of Log reduction vs. dose were made and the values below were interpolated from the linear function of the data points.

Another experiment has as its system Enterococci. Put plainly: Disinfection of spiked wastewater effluent with PFA, UV and PFA+UV: Enterococci count. The following applies: for PFA in combination with UV (Qa): UV 15 mWs/cm^2; for PFA in combination with UV (Qa) / PFA alone (QA): interpolated. More on the design: species or system Enterococcus faecalis. On the procedure: as §1, §2, §3, §4, §5
Experiment [3] can be described thus: Decomposition of 8 spiked micropollutants in secondary waste water by PFA and UV (batch reactor). The following applies: total reaction time 15 min. On the procedure:
The total reaction time was always kept in 15 min and the treatment temperature was between 10-15° C. The concentrations of each micropollutant were analyzed before and after treatment, and the difference was used to calculate the conversion of each compound. Further, a mean value of the conversions (%) of those 8 compounds was calculated to describe the overall efficiency of the treatment.

[4] abbreviates: PFA 0.25 mg/l alone, 10 minutes contact.

Regarding `CC(=O)OO` [PAA, peracetic acid], in the experiment on MS2 [1], the “log reduction of MS2” value is 1-1.5.
As for `O=COO` [PFA, performic acid], the “PFA dose for 1 log reduction of MS2” value in the experiment with MS2 [2] (PFA alone, effluent wastewater, 90% (1 log) removal) is recorded as 3.5 mg/l. In the experiment with MS2 [2] (UV + PFA, 1 log reduction of MS2), the “synergy index (SI)” value is 1. The SI in the experiment on E. coli (Log reduction 1.5, PFA 0.06 mg/l + UV 15 mWs/cm^2) is 0.88; in the experiment with E. coli (Log reduction 2, PFA 0.22 mg/l + UV 15 mWs/cm^2), 1 and 1.02. Besides, the “PFA in combination with UV (Qa)” value was found to be 0.06 mg/L in the experiment on E. coli (Log reduction 1.5); 0.22 mg/L in the experiment with E. coli (Log reduction 2); 0.03 mg/L with Enterococci (Log reduction 2.5); 0.19 mg/L in the experiment with Enterococci (Log reduction 3); 0.35 mg/L in the experiment on Enterococci (Log reduction 3.5); 0.52 mg/L with Enterococci (Log reduction 4). Moreover, the “PFA alone (QA)” value with E. coli (Log reduction 1.5) was 0.33 mg/L; in the experiment on E. coli (Log reduction 2) it was 0.44 mg/L; in the experiment with Enterococci (Log reduction 2.5) it was 0.47 mg/L; in the experiment on Enterococci (Log reduction 3), 0.56 mg/L; in the experiment with Enterococci (Log reduction 3.5), 0.66 mg/L; in the experiment with Enterococci (Log reduction 4), 0.75 mg/L. Moreover, the Log reduction was found to be 3.52 in the experiment with E. coli (PFA 0.25 mg/l + UV 25 mWs/cm^2), 1.72 in the experiment on E. coli (setting [4]), 4.53 in the experiment on Enterococci (PFA 0.25 mg/l + UV 15 mWs/cm^2) and 3.08 in the experiment on Enterococci (setting [4]). Besides, the “average conversion (%) of 8 compounds” value came to 1.66% in experiment [3] (PFA 5 mg/l, UV 0 min); 15.27% in experiment [3] (PFA 5 mg/l, UV 1 min); 28.53% in experiment [3] (PFA 5 mg/l, UV 5 min); 47.86% in experiment [3] (PFA 5 mg/l, UV 15 min); 5.15% in experiment [3] (PFA 12.5 mg/l, UV 0 min); 19.25% in experiment [3] (PFA 12.5 mg/l, UV 1 min). Besides, the “average conversion (%) of 8 compounds” value in experiment [3] (PFA 12.5 mg/l, UV 5 min) came out at 36.25%; in experiment [3] (PFA 12.5 mg/l, UV 15 min) it was 54.18%; in experiment [3] (PFA 25 mg/l, UV 0 min), 8.98%; in experiment [3] (PFA 25 mg/l, UV 1 min), 16.64%; in experiment [3] (PFA 25 mg/l, UV 5 min), 41.61%; in experiment [3] (PFA 25 mg/l, UV 15 min (88 mJ/cm^2)) it was 66.78%.
